# Laboratory results published in patent US20200121666A1, “TAU PHOSPHORYLATION INHIBITORS AND METHODS FOR TREATING OR PREVENTING ALZHEIMER'S DISEASE” (THE METHODIST HOSPITAL SYSTEM, priority 2017, published 2020).
# What was measured:
# [1] = system: 3D AD model (#A5); assay: RNA-seq canonical pathway analysis of 3D AD cultures treated with anti-Aβ drugs; assay type: cell-based, human; settings: anti-Aβ drug treatment versus DMSO
# Source text: FIG. 15. […] Pearson correlations of global gene expression profile among 2D undifferentiated control ReN cells, 3D control (G2# B2on), AD # A5 (# A5, moderate Aβ42/40 ratio ˜0.2), AD # D4 (# D4, high Aβ42/40 ratio, ˜1.4), and AD # H10 (# H10, extra high Aβ42/40 ratio, ˜1.7). Units are log CPM. b. Volcano plots show −log10(FDR) vs log FC distribution for G2# B2 (control) vs AD # A5 (AD), AD # A5 DMSO vs AD # A5 BSI (BACE inhibitor, Ly2886721), and AD # A5 DMSO vs AD # A5 GSM (gamma secretase modulator, SGSM15606) transcriptomic signatures. […] Canonical pathway analysis between G2# B2 and AD # A5 (Ingenuity pathway analysis, Qiagen). d. Analysis of common canonical pathways. The pathway analysis among G2# B2 vs AD # A5, AD # A5 DMSO vs AD # A5 BSI, and AD # A5 DMSO vs AD # A5 GSM. Activation z-scores indicate that majority of decreased pathways in AD # A5 are restored by BSI and/or GSM treatments. e. […]
# To examine the multiple single-clonal AD models, unbiased whole genome RNA-seq analyses were performed to compare gene expression profiles among the clonal AD models with different Aβ42/40 ratios, as compared to control 3D cultures and undifferentiated 2D control cells (FIG. 15a-d). […] Differential gene expression profile of 3D AD cultures were analyzed after treating anti-Aβ drugs (BACE1 inhibitor, Ly2886721; Gamma-secretase modulator (GSM), GSM15606) (FIG. 15b). […]
# [2] = system: phospho-tau (AT8) in ReNCell VM cells carrying the APPSL mutation; assay: High-content screen of phospho-tau (AT8) staining in 3D cultured FAD neural stem cells; assay type: cell-based, human; settings: for inhibition of pTau / tau hyperphosphorylation: primary screen of 2,640 compounds, compound added from the beginning of culture, whole-well AT8 images
# Source text: FIG. 1. High-content screening. FAD-transfected neural stem cells were 3D cultured in matrigel and treated with each compound. Cells were stained with phospho-tau antibody (AT8). Images covering the whole well were taken and quantified as the readout.
# A 3D human neural culture model of AD was developed by culturing ReNCell VM cells carrying the APPSL mutation in a thin layer (50˜100 μm thick) of Matrigel. This method was then miniaturized to 96, 384, or other high content well plate formats (FIG. 1) to provide a faithful model for testing the effect of compounds on AD. However, the high-throughput screening is limited by its readout of microscopy images, which cannot be analyzed manually in large quantity.
# To enable high-throughput in vitro screening, an image-processing program was developed, based on NeuriteIQ software^17-23 (FIG. 2A), to automatically quantify tau phosphorylation from images of cultured cells. The program processes images from th e nucleus and neurite channels separately. In the nucleus channel, nuclei are detected and segmented by local maximum detection and watershed method. In the neurite channel, phospho-tau stained cells are treated as two-dimensional curvilinear structures and processed based on the local Hessian matrix^24,25, which allows the detection of center points and local directions of neurites in a field. The program reliably quantified the number of neurons with hyper-phosphorylated tau (FIG. 2B). Thus, a high-content screening system for the identification of compounds targeting the tau pathology in AD was established.
# Known drug and bioactive compounds (2,640 compounds) were selected for the initial screen from the Sigma-Aldrich LOPAC (1280), Tocriscreen Total Library (1120), and a manual selection of 240 Kinase Inhibitors. […] A few of the 38 compounds have been previously reported to inhibit tau phosphorylation in AD animal models (e.g., baicalein^26 and tretinoin^27), further validating the credibility of the screen. Most, however, are novel AD candidates.
# [3] = system: pTau in AD-in-a-dish model; assay: Validation of SMART-predicted compounds in the reformatted high content AD-in-a-dish model; design: species or system human; settings: cell-based validation of 26 purchased SMART predictions
# Source text: Twenty-two of the 38 aforementioned screening hits had LINCS data covering the perturbation profiles for at least 4 cell lines. From these 22 hits, 2 were eliminated because no known drug candidates ranked high enough based on transcriptomic similarities to these two primary hits; and 3 others were removed upon inspection of the compound properties of the predictions they made, i.e., the predicted drugs may be toxic or unfit for systematic use. Thus, the 17 primary hits shown in Table 1 were used to initiate a pilot run using the SMART framework. The cMAP algorithm^7 was used to rank all compounds in the LINCSCloud, based on the similarity of transcriptomic profiles to each of the 17 primary hits. If any compound was determined by cMAP algorithm to have a similarity score larger than 90 to at least one of the primary hits, it was identified as a hit candidate. After filtering based on pharmacology features, 85 candidates predicted by 17 primary hits (Table 1) remained; 26 of these 85 compounds were purchased for validation after analysis for pharmacology and medical practice features.
# [4] = system: tau phosphorylation; settings: previously reported; cited from earlier work
# [5] = system: 3D AD cell model transcriptome; assay: Whole genome RNAseq after compound treatment versus control; assay type: cell-based, human; settings: for immune and inflammatory related pathways (5 of 6 connected to 12 down-regulated genes): after treatment versus control; for down-regulated genes in PPI subnetwork, shared by both treatments / up-regulated genes in PPI subnetwork, shared by both treatments: |log FC|>1.5 versus control
# Source text: PPI information was extracted from STRING database version 10.5 with the cutoff for confidence score at 0.4.
# Given ebselen and leflunomide in FIG. 17, an unbiased whole genome RNAseq analysis was used to obtain transcriptomic profiles after the treatment of each compound and compare them separately to control conditions. For both treatments, a subset of genes and pathways show significant change (|log FC|>1.5) in the same direction over control condition. […] These 22 genes have 102 PPI pairs among them, and there are 7 genes directly connected to APP (coding Aβ) or MAPT (coding Tau).
# It's worth noting that the enrichment of immune and inflammatory related pathway changes is consistent with the characteristics of the 3D cell model, as this system contains astrocytes, which is one of the brain innate immune cells. […] Also, neuroinflammatory pathways are highly unregulated in high Abeta42/40 lines (D4 and H10) as compared to A5 (similar to GA2) (data not shown).
# [6] = system: p-tau (pSer396/Ser404); assay: Quantitative immunofluorescence staining in 3D AD models with high Aβ42/40 ratios; assay type: cell-based, human; settings: 5 μM for 3 weeks
# Source text: FIG. 17. Validation of primary hit candidates. Primary hit candidates were confirmed using Western blot analysis (a) and quantitative immunofluorescence staining in 3D AD models with high Aβ42/40 ratios (# HReN and # A4H1) (b). PHF1 pSer396/Ser404 tau antibody was used to detect changes in phospho tau in 3D AD # HReN cells treated with DMSO vehicle, ebselen, or leflunomide.
# In addition to MSD Mesoscale ELISA shown in FIG. 16, quantitative Western blot and immunofluorescence analysis were used to validate candidate drugs. […] Ebselen and leflunomide are compounds screened from original HCS screening of […] biologically active/FDA-approved drug library. […] Moreover, quantitative immunofluorescence staining was used to analyze p-tau changes after treating these compounds.
smiles,measurement,setting,value
COc1nc(-c2cc(C)c(NC(C)c3ccc(F)cc3)nn2)ccc1-n1cnc(C)c1 (centres unmarked) [GSM15606],enriched canonical pathways of the 3D AD model,[1],significantly altered
NC1=N[C@@]2(c3cc(NC(=O)c4ccc(F)cn4)ccc3F)COC[C@H]2CS1 [Ly2886721],enriched canonical pathways of the 3D AD model,[1],significantly altered
"CC[N+](CC)(CC)CCOc1ccc(/C=C/c2ccccc2)cc1 [MG624, mg 624]","tau phosphorylation, late addition","[2]; compound added after week 2, when tau phosphorylation should have already developed",significantly reduced
same,"tau phosphorylation, late addition","[2]; compound added after week 4, cells fixed and stained at week 6",significantly reduced
same,inhibition of pTau / tau hyperphosphorylation,[2],almost completely inhibited
"C1CCC(C(CC2CCCCN2)C2CCCCC2)CC1.O=C(O)/C=C\C(=O)O (centres unmarked) [Perhexiline, perhexiline maleate]",inhibition of pTau,[3],successful predictions
O=c1cc(-c2ccccc2)oc2cc(O)c(O)c(O)c12 [baicalein],tau phosphorylation in AD animal models,[4],inhibit
Oc1c(Cl)cc(Cl)c2cccnc12 [chloroxine],inhibition of pTau,[3],validated hits
O=c1c2ccccc2[se]n1-c1ccccc1 [ebselen],immune and inflammatory related pathways (5 of 6 connected to 12 down-regulated genes),[5],significantly down-regulated
same,"down-regulated genes in PPI subnetwork, shared by both treatments",[5],15 genes
same,"up-regulated genes in PPI subnetwork, shared by both treatments",[5],7 genes
CCC(C)[C@H]1O[C@]2(CC[C@@H]1C)C[C@@H]1C[C@@H](C/C=C(\C)[C@@H](O[C@H]3C[C@H](OC)[C@@H](O[C@H]4C[C@H](OC)[C@@H](O)[C@H](C)O4)[C@H](C)O3)[C@@H](C)/C=C/C=C3\CO[C@@H]4[C@H](O)C(C)=C[C@@H](C(=O)O1)[C@]34O)O2 (some centres unmarked) [ivermectin],inhibition of pTau / tau hyperphosphorylation,[2],almost completely inhibited
same,inhibition of pTau / tau hyperphosphorylation,[2]; listed as Ivermectin,most significant phenotype
Cc1oncc1C(=O)Nc1ccc(C(F)(F)F)cc1 [leflunomide],cellular viability and neurite networks,[6],without affecting
same,p-tau (pSer396/Ser404) accumulation,[6],robustly decreased
same,immune and inflammatory related pathways (5 of 6 connected to 12 down-regulated genes),[5],significantly down-regulated
same,"down-regulated genes in PPI subnetwork, shared by both treatments",[5],15 genes
same,"up-regulated genes in PPI subnetwork, shared by both treatments",[5],7 genes
"N=C(N)c1ccc(OCCCCCOc2ccc(C(=N)N)cc2)cc1 [pentamidine, pentamidine isethionate]",inhibition of pTau / tau hyperphosphorylation,[2],almost completely inhibited
CC1=C(/C=C/C(C)=C/C=C/C(C)=C/C(=O)O)C(C)(C)CCC1 [retinoic acid],tau phosphorylation in AD animal models,[4],inhibit
